Test system: genotype A, "Long" strain RSV
Assay: RSV-A assay (CPE protection in Hep-2 cells, ATPlite readout)
Format: cell-based, Human respiratory syncytial virus (HRSV)
Settings: human respiratory syncytial virus, genotype A “Long” strain RSV, MOI 0.1, CPE protection, read-out: Human RSV-A (“Long”)
How it was run: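 Compound effect on RSV-induced CPE: Hep-2 monolayers, MOI 0.1, duplicate 2-fold titrations, 5-day culture in 10% FBS DMEM. Readout is ATP-based luminescence, normalised to virus-only and no-virus controls, giving EC50.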

Row | EC50 [nM] | Compound
1 | > 200 | COc1cc(C(=O)NC[C@](O)(c2cc3c(c(-c4ccc(F)cc4)n2)OC[C@@]3(CF)C(N)=O)C(F)(F)F)cn2cc(C3CC3)nc12 [Example 291]
2 | < 200 | COc1cc(C(=O)NC[C@](O)(c2cc3c(c(-c4ccc(F)cc4)n2)OC[C@]3(CF)C(N)=O)C(F)(F)F)cn2cc(C3CC3)nc12 [Example 292]
3 | > 200 | C[C@@H](O)COc1ccc(C(=O)NC[C@](O)(c2cc3c(c(-c4ccc(F)cc4)n2)OC[C@@]3(CF)C(N)=O)C(F)(F)F)cc1OC1CC1 [Example 293]
4 | < 200 | C[C@@H](O)COc1ccc(C(=O)NC[C@](O)(c2cc3c(c(-c4ccc(F)cc4)n2)OC[C@]3(CF)C(N)=O)C(F)(F)F)cc1OC1CC1 [Example 294]
5 | < 200 | COc1cc(C(=O)NC[C@](O)(c2cc3c(c(-c4ccc(F)cc4)n2)OCC3(CF)C(N)=O)C(F)(F)F)cc2cn(C3CC3)nc12 (stereo partly shown) [Example 295]
6 | > 200 | NC(=O)[C@]1(CF)COc2c1cc([C@@](O)(CNC(=O)c1cc(OC3CC3)c3ncccc3c1)C(F)(F)F)nc2-c1ccc(F)cc1 [Example 296]
7 | < 200 | NC(=O)[C@@]1(CF)COc2c1cc([C@@](O)(CNC(=O)c1cc(OC3CC3)c3ncccc3c1)C(F)(F)F)nc2-c1ccc(F)cc1 [Example 297]
8 | > 200 | COc1cc(C(=O)NC[C@](O)(c2cc3c(c(-c4ccc(F)cc4)n2)OC[C@@]3(CF)C(N)=O)C(F)(F)F)ccc1OC1CC1 [Example 298]
9 | < 200 | COc1cc(C(=O)NC[C@](O)(c2cc3c(c(-c4ccc(F)cc4)n2)OC[C@]3(CF)C(N)=O)C(F)(F)F)ccc1OC1CC1 [Example 299]
10 | < 200 | COc1cc(C(=O)NC[C@](O)(c2cc3c(c(-c4ccc(F)cc4)n2)OC[C@]3(C)C(N)=O)C2CC2)cc2cn(C3CC3)nc12 [Example 302]
11 | < 200 | COc1cc(C(=O)NC[C@](O)(c2cc3c(c(-c4ccc(F)cc4)n2)OC[C@]3(C)C(N)=O)C2CC2)cc2cn(C(F)F)nc12 [Example 303]
12 | > 200 | CCS(=O)(=O)c1ccc(-c2nc([C@@](O)(CNC(=O)c3cc(F)c4nc(N)sc4c3)C(F)(F)F)cc3c2OC[C@]3(C)C(N)=O)cc1 [Example 311]
13 | < 200 | COc1cc(C(=O)NC[C@](O)(c2cc3c(c(-c4ccc(F)cc4)n2)OC[C@]3(C)C(N)=O)C2CC2)ccc1OC1CC1 [Example 316]
14 | < 200 | C[C@@H](O)COc1ccc(C(=O)NC[C@](O)(c2cc3c(c(-c4ccc(F)cc4)n2)OC[C@]3(C)C(N)=O)C2CC2)cc1OC1CC1 [Example 317]
15 | < 200 | C[C@]1(C(N)=O)COc2c1cc([C@@](O)(CNC(=O)c1ccc3[nH]c(=O)oc3c1)C(F)(F)F)nc2-c1ccc(F)cc1 [Example 318]
16 | < 200 | COc1cc(C(=O)NC[C@](O)(c2cc3c(c(-c4ccc(F)cc4)n2)OC[C@]3(C)C(N)=O)C2CC2)cc2cc(Cl)c(C)nc12 [Example 319]
17 | < 200 | COc1cc(C(=O)NC[C@](O)(c2cc3c(c(-c4ccc(F)cc4)n2)OC[C@]3(C)C(N)=O)C2CC2)cn2cc(C3CC3)nc12 [Example 320]
18 | < 200 | COc1cc2cc(C(=O)NC[C@](O)(c3cc4c(c(-c5ccc(F)cc5)n3)OC[C@]4(C)C(N)=O)C(F)(F)F)ccc2nc1Cl [Example 325]
19 | < 200 | COc1cc2cc(C(=O)NC[C@](O)(c3cc4c(c(-c5ccc(F)cc5)n3)OC[C@]4(C)C(N)=O)C(F)(F)F)ccc2nc1C [Example 326]
20 | < 200 | Cc1cnc2c(NC(=O)N(C)C3CC3)cc(C(=O)NC[C@](O)(c3cc4c(c(-c5ccc(F)cc5)n3)OC[C@]4(C)C(N)=O)C(F)(F)F)cc2c1 [Example 328]

Row | EC50 [nM] | Compound
21 | > 200 | [2H]C([2H])([2H])NC(=O)Nc1cc(C(=O)NC[C@](O)(c2cc3c(c(-c4ccc(F)cc4)n2)OC[C@]3(C)C(N)=O)C(F)(F)F)cc2ccc(C)nc12 [Example 330]
22 | < 200 | C[C@]1(C(N)=O)COc2c1cc([C@@](O)(CNC(=O)c1cc(OC3CC3)n3nc(C4CC4)cc3c1)C1CC1)nc2-c1ccc(F)cc1 [Example 331]
23 | < 200 | C[C@]1(C(N)=O)COc2c1cc([C@@](O)(CNC(=O)c1ccn3nc(C4CC4)cc3c1)C1CC1)nc2-c1ccc(F)cc1 [Example 332]
24 | > 200 | C[C@]1(C(N)=O)COc2c1cc([C@@](O)(CNC(=O)c1cnc3[nH]ccc3c1Cl)C(F)(F)F)nc2-c1ccc(F)cc1 [Example 333]
25 | > 200 | Cc1ncccc1C(=O)NC[C@](O)(c1cc2c(c(-c3ccc(F)cc3)n1)OC[C@]2(C)C(N)=O)C(F)(F)F [Example 334]
26 | > 200 | C[C@]1(C(N)=O)COc2c1cc([C@@](O)(CNC(=O)c1nc3cccnc3s1)C(F)(F)F)nc2-c1ccc(F)cc1 [Example 335]
27 | > 200 | COc1ccc2cc(C(=O)NC[C@](O)(c3cc4c(c(-c5ccc(F)cc5)n3)OC[C@]4(C)C(N)=O)C(F)(F)F)n(C)c2c1 [Example 336]
28 | > 200 | Cn1cc(C(=O)NC[C@](O)(c2cc3c(c(-c4ccc(F)cc4)n2)OC[C@]3(C)C(N)=O)C(F)(F)F)nn1 [Example 337]
29 | > 200 | C[C@]1(C(N)=O)COc2c1cc([C@@](O)(CNC(=O)c1cc3ccc(C(F)(F)F)cc3[nH]1)C(F)(F)F)nc2-c1ccc(F)cc1 [Example 338]
30 | > 200 | CC(C)Oc1ccc2cc(C(=O)NC[C@](O)(c3cc4c(c(-c5ccc(F)cc5)n3)OC[C@]4(C)C(N)=O)C(F)(F)F)[nH]c2c1 [Example 339]
31 | < 200 | COC(=O)Nc1cc(C(=O)NC[C@](O)(c2cc3c(c(-c4ccc(F)cc4)n2)OC[C@]3(C)C(N)=O)C(F)(F)F)ccc1F [Example 340]
32 | > 200 | C[C@]1(C(N)=O)COc2c1cc([C@@](O)(CNC(=O)c1cc3c(cc1Cl)NC(=O)C3)C(F)(F)F)nc2-c1ccc(F)cc1 [Example 341]
33 | > 200 | C[C@]1(C(N)=O)COc2c1cc([C@@](O)(CNC(=O)c1cnoc1C1CC1)C(F)(F)F)nc2-c1ccc(F)cc1 [Example 342]
34 | > 200 | C[C@]1(C(N)=O)COc2c1cc([C@@](O)(CNC(=O)c1cnc3cc[nH]c3c1)C(F)(F)F)nc2-c1ccc(F)cc1 [Example 343]
35 | < 200 | Cc1cc(C(=O)NC[C@](O)(c2cc3c(c(-c4ccc(F)cc4)n2)OC[C@]3(C)C(N)=O)C(F)(F)F)ccn1 [Example 344]
36 | > 200 | C[C@]1(C(N)=O)COc2c1cc([C@@](O)(CNC(=O)c1c[nH]c3cc(Cl)ccc13)C(F)(F)F)nc2-c1ccc(F)cc1 [Example 345]
37 | > 200 | C[C@]1(C(N)=O)COc2c1cc([C@@](O)(CNC(=O)c1ccc3ccsc3c1)C(F)(F)F)nc2-c1ccc(F)cc1 [Example 346]
38 | > 200 | C[C@]1(C(N)=O)COc2c1cc([C@@](O)(CNC(=O)c1c[nH]c3ncc(C(F)(F)F)cc13)C(F)(F)F)nc2-c1ccc(F)cc1 [Example 347]
39 | < 200 | C[C@]1(C(N)=O)COc2c1cc([C@@](O)(CNC(=O)c1ccc(F)c3cc[nH]c13)C(F)(F)F)nc2-c1ccc(F)cc1 [Example 348]
40 | > 200 | C[C@]1(C(N)=O)COc2c1cc([C@@](O)(CNC(=O)c1cc[nH]c1)C(F)(F)F)nc2-c1ccc(F)cc1 [Example 349]

Row | EC50 [nM] | Compound
41 | > 200 | C[C@]1(C(N)=O)COc2c1cc([C@@](O)(CNC(=O)c1c[nH]c3c(Cl)cccc13)C(F)(F)F)nc2-c1ccc(F)cc1 [Example 350]
42 | > 200 | C[C@]1(C(N)=O)COc2c1cc([C@@](O)(CNC(=O)c1c[nH]c3nccnc13)C(F)(F)F)nc2-c1ccc(F)cc1 [Example 351]
43 | > 200 | C[C@]1(C(N)=O)COc2c1cc([C@@](O)(CNC(=O)c1c[nH]c3ccccc13)C(F)(F)F)nc2-c1ccc(F)cc1 [Example 352]
44 | > 200 | C[C@]1(C(N)=O)COc2c1cc([C@@](O)(CNC(=O)c1c[nH]c3ncc(F)cc13)C(F)(F)F)nc2-c1ccc(F)cc1 [Example 353]
45 | > 200 | Cc1cc(C(=O)NC[C@](O)(c2cc3c(c(-c4ccc(F)cc4)n2)OC[C@]3(C)C(N)=O)C(F)(F)F)n[nH]1 [Example 355]
46 | > 200 | Cc1oncc1C(=O)NC[C@](O)(c1cc2c(c(-c3ccc(F)cc3)n1)OC[C@]2(C)C(N)=O)C(F)(F)F [Example 356]
47 | > 200 | C[C@]1(C(N)=O)COc2c1cc([C@@](O)(CNC(=O)c1ccc3sccc3c1)C(F)(F)F)nc2-c1ccc(F)cc1 [Example 357]
48 | > 200 | Cc1ccn2ncc(C(=O)NC[C@](O)(c3cc4c(c(-c5ccc(F)cc5)n3)OC[C@]4(C)C(N)=O)C(F)(F)F)c2n1 [Example 358]
49 | > 200 | C[C@]1(C(N)=O)COc2c1cc([C@@](O)(CNC(=O)c1ccc3cc[nH]c3c1F)C(F)(F)F)nc2-c1ccc(F)cc1 [Example 359]
50 | > 200 | C[C@]1(C(N)=O)COc2c1cc([C@@](O)(CNC(=O)c1cccc3nccn13)C(F)(F)F)nc2-c1ccc(F)cc1 [Example 360]
51 | > 200 | Cc1ccn2c(C(=O)NC[C@](O)(c3cc4c(c(-c5ccc(F)cc5)n3)OC[C@]4(C)C(N)=O)C(F)(F)F)c(C)nc2c1 [Example 361]
52 | > 200 | Cc1cc[nH]c1C(=O)NC[C@](O)(c1cc2c(c(-c3ccc(F)cc3)n1)OC[C@]2(C)C(N)=O)C(F)(F)F [Example 362]
53 | > 200 | C[C@]1(C(N)=O)COc2c1cc([C@@](O)(CNC(=O)c1ccoc1)C(F)(F)F)nc2-c1ccc(F)cc1 [Example 363]
54 | > 200 | C[C@]1(C(N)=O)COc2c1cc([C@@](O)(CNC(=O)c1ccno1)C(F)(F)F)nc2-c1ccc(F)cc1 [Example 364]
55 | > 200 | C[C@]1(C(N)=O)COc2c1cc([C@@](O)(CNC(=O)c1cnc3[nH]cnc3c1)C(F)(F)F)nc2-c1ccc(F)cc1 [Example 365]
56 | < 200 | C[C@]1(C(N)=O)COc2c1cc([C@@](O)(CNC(=O)c1cccc3cc[nH]c13)C(F)(F)F)nc2-c1ccc(F)cc1 [Example 366]
57 | > 200 | C[C@]1(C(N)=O)COc2c1cc([C@@](O)(CNC(=O)c1cnc3ccc(F)cn13)C(F)(F)F)nc2-c1ccc(F)cc1 [Example 367]
58 | > 200 | C[C@]1(C(N)=O)COc2c1cc([C@@](O)(CNC(=O)c1cc3ccccc3s1)C(F)(F)F)nc2-c1ccc(F)cc1 [Example 368]

From patent publication US12612412B2, “Antiviral heterocyclic compounds” (Enanta Pharmaceuticals, Inc., priority 2021, dated 2026)
